In brackets after ≈: the same amount, converted by molar mass. Like-named read-outs stand apart in the source and are kept apart here. Marks after values point to notes of the source that are not given here.
How the values were obtained:
Shigella sonnei B-720 = assay: Sensitivity of strains: suppression of growth; type: cell-based; details: Compound (1) 1.0%; antibiotics disc method
[1] = Blood levels after single-dose oral administration, UV spectroscopy; type: in vivo, Sprague-Dawley rats; details: for concentration at 4 h / concentration at 8 h: Sprague-Dawley, rat, serum, oral, read-out: Blood Level of Compound (1), Mean
Experimental: The aim of this example was to establish absorption and blood levels of Compound (1) in the rat after a single-dose, oral administration.
Sprague-Dawley rats (6 w/o, delivered 30 Jan, 2001) were acclimatized for 6 days in the Animal Facility under standardized environmental conditions (22° C. ±3° C., rel hum 30-70%, artificial light, 12 hrs light/12 hrs dark). Rats were fed a conventional laboratory diet with food and water ad lib and caged 5 rats per cage.
Compound (1) was prepared as an aqueous suspension in sterile LPW. At higher concentrations the suspension was sonicated to reduce particle size sufficiently to pass through the gavage needle.
Compound (1) suspensions and the water control were administered at approx […], in a single. One control and five treatment rats were weighed immediately before each dose administration, the dose volume calculated and the dose delivered by gavage (22 gauge stainless steel, smooth-balled end attached to a syringe).
Approximately 100-200 μL of blood (microfuge tube) was removed from the tail at 4 and 8 hours. Tails were prewarmed using a heat lamp and snipped at the tip with a large scalpel. Blood was massaged into a microfuge tube. Twenty four hour blood samples were not attempted because of the difficulty of snipping scarred tails and the distress caused to rats.
Blood was allowed to clot, centrifuged in a microfuge for 3 minutes (speed 14) and the serum separated and stored at −20° C.
Samples for treatment groups and for controls were thus pooled and a mean level of Compound (1) for each treatment group determined.
Compound (1) was extracted (x2) from serum by toluene and absorbance measured at 370 nm (Hitachi U2000). A spiked control using 100 μg/mL Compound (1) in 50% methanol/water (V/V) and untreated controls were also assayed.

[2] = test system: Aspergillus fumigatus asexual exospores; assay: Sporicidal activity; type: cell-based; details: 512 μg/mL in water+Tween-20; 24 hrs and 6 hrs
Experimental: Aspergillus fumigatus asexual exospores
Compound (1) in water+Tween-20® was tested for sporicidal activity up to 24 hrs.

[3] = test system: Conditional pathogenic enterobacteria gram-negative aerobic bacilli; type: cell-based; note: key: + sensitive strains; + moderately sensitive strains; − stable strains
[4] = test system: Staphylococcus aureus strain 674; assay: Impregnated agar serial double dilutions; details: meat peptone agar
physchem = details: aqueous with cosolvent or surfactant or cyclodextrin
Trichophyton rubrum = assay: NCCLS broth macro-dilution MIC/MFC (RPMI); type: cell-based; details: Table 10, 7 day, 30° C.
Candida albicans = assay: Rate of kill, viable counts
Corynebacterium B-670 = assay: Agar diffusion assay; type: cell-based
[5] = test system: Citrobacter diversus B-678; assay: Sensitivity of strains: suppression of growth; type: cell-based; details: Compound (1) 1.0%; antibiotics disc method
Bacillus subtilis RMIT = assay: NCCLS broth microdilution MIC/MBC; type: cell-based; details: for MIC: Bacillus subtilis
E. coli = assay: MIC by solvent of formulation; details: for MIC: Escherichia coli
[6] = test system: Salmonella typhimurium M-727; assay: Agar diffusion assay
Escherichia coli B-683 = assay: Sensitivity of strains: suppression of growth; type: cell-based; details: Compound (1) 1.0%; antibiotics disc method
Enterococcus faecalis = assay: Rate of kill, viable counts; details: 512 μg/mL; at 9 h
Rhizopus stolonifer = assay: microbe, parasite or virus in culture; type: cell-based; details: for MIC: Rhizopus stolonifer
Pseudoallescheria boydii = assay: M38-P microdilution MIC/MFC; type: cell-based; details: Table 16, Dematiaceous fungi
Acinetobacter B-681 = assay: Sensitivity of strains: suppression of growth; type: cell-based; details: Compound (1) 1.0%; antibiotics disc method
Proteus mirabilis = assay: NCCLS broth microdilution MIC/MBC; type: cell-based; details: for MIC: Proteus mirabilis
[7] = test system: Campylobacter jejuni RMIT FF3; assay: NCCLS broth microdilution MIC/MBC; type: cell-based; details: Table 9, 48 h
Rhizopus stoloniefer = assay: M38-P microdilution MIC/MFC; type: cell-based; details: Table 16, 48 h, 35° C.
Geotrichum M-158 = assay: Sensitivity of pathogenic fungi; type: cell-based; details: Inoculation 10^5
[8] = test system: Salmonella intraperitoneally; assay: Anti-bacterial activity in vivo, infected mice; details: schedule −1, 0, +1, +2, +3; 200 mg/kg intrmuscularly
C. jejuni 541-3 = assay: MIC/MMC against clinical strains of Campylobacter spp.; details: Table 18; clinical strain isolated from humans

## C/C(=C\c1ccc2c(c1)OCO2)[N+](=O)[O-] [Compound (1)]
Shigella sonnei B-720
  Suppression of Growth (+/−): +
[1]; 1250 mg/kg, 4 + 8 h
  Blood Level of Compound (1), Mean: 27000 ng/mL
[1]; 500 mg/kg, 500 mg/kg fasted
  concentration at 4 h: 12000 ng/mL
  concentration at 8 h: 14000 ng/mL
[1]; 500 mg/kg, 500 mg/kg fed
  concentration at 4 h: 8000 ng/mL
  concentration at 8 h: 17000 ng/mL
[1]; 1000 mg/kg, 1000 mg/kg fasted
  concentration at 4 h: 26000 ng/mL
  concentration at 8 h: 21000 ng/mL
[1]; absorption from the gastrointestinal tract
  oral dose reaching the blood: approximately 2%
[2]
  sporicidal activity: killed A. fumigatus exospores at 24 hrs but not 6 hrs
[3]
  Suppression of Growth (+/−): +
[4]
  Minimal % Compound (1) giving complete inhibition of test culture: 0.015%
physchem
  solubility: 1000 µg/mL (≈ 4830 µM)
Trichophyton rubrum
  MMC: 256 µg/mL
Trichophyton rubrum; Trichophyton rubrum, 168 h
  MIC: 1 µg/mL (≈ 4.83 µM)
Candida albicans; 128 μg/mL, in 6h
  Log reduction in viable count: 2 in 6h
Candida albicans; 256 μg/mL, in 4h
  Log reduction in viable count: 6 in 4h
Candida albicans; 512 μg/mL, at 2 h
  Log reduction in viable count: 5.5 at 2 h
Candida albicans; within 2 hrs at 512 μg/mL
  reduction (kill): > 99.999%
Candida albicans; within 4 hours at 256 μg/mL
  reduction (kill): > 99.999%
Corynebacterium B-670; Concentration in disc 0.1%
  Diameter of zone of Growth inhibition: 31# mm
Corynebacterium B-670; Concentration in disc 1.0%
  Diameter of zone of Growth inhibition: 35# mm
Corynebacterium B-670; Concentration in disc 2.0%
  Diameter of zone of Growth inhibition: 40# mm
[5]
  Suppression of Growth (+/−): +
Bacillus subtilis RMIT; Table 9, 35° C., 24 hours
  MIC: 16 µg/mL (≈ 77.2 µM)
  MMC: 16 µg/mL
Bacillus subtilis RMIT; Table 17, 2 or 3 replicates
  MIC: 16 µg/mL (≈ 77.2 µM)
  MMC: 16 µg/mL
E. coli
  times more active in ethanol than in DMSO: at least 8 times
E. coli; 2.5% DMSO
  MIC: > 512 µg/mL
E. coli; formulated in ethanol (0.06% ETON)
  MIC: 128 µg/mL (≈ 618 µM)
[6]; Concentration in disc 0.1%
  Diameter of zone of Growth inhibition: 24# mm
[6]; Concentration in disc 1.0%
  Diameter of zone of Growth inhibition: 30# mm
[6]; Concentration in disc 2.0%
  Diameter of zone of Growth inhibition: 32# mm
Escherichia coli B-683
  Suppression of Growth (+/−): +
Enterococcus faecalis
  Log reduction in viable count: 0.6 at 9 h
Rhizopus stolonifer; Table 20, […], after 12 weeks continuous exposure, read-out: MIC Final
  MIC: 16 µg/mL (≈ 77.2 µM)
Rhizopus stolonifer; Table 20, […], parent strain, read-out: MIC Initial
  MIC: 4 µg/mL (≈ 19.3 µM)
Rhizopus stolonifer; before exposure, MHB, read-out: Standard MIC Initial
  MIC: 4 µg/mL (≈ 19.3 µM)
Rhizopus stolonifer; to Wk 5
  7-Day MIC Range: 4-32 to Wk 5 μg/mL
Pseudoallescheria boydii
  MMC: 4 µg/mL
Pseudoallescheria boydii; read-out: MIC
  MIC: 2 µg/mL (≈ 9.65 µM)
Acinetobacter B-681
  Suppression of Growth (+/−): +
Proteus mirabilis
  MIC: 256 µg/mL (≈ 1240 µM)
Proteus mirabilis; 24 h
  MIC: 256 µg/mL (≈ 1240 µM)
Proteus mirabilis; Table 9, 35° C., 24 hours
  MMC: >512 µg/mL
Proteus mirabilis; Table 17, 2 or 3 replicates
  MMC: >512 µg/mL
[7]; Campylobacter jejuni, RMITFF3
  MIC: 2 µg/mL (≈ 9.65 µM)
[7]
  MMC: 2 µg/mL
Rhizopus stoloniefer; Rhizopus, read-out: MIC
  MIC: 4 µg/mL (≈ 19.3 µM)
Rhizopus stoloniefer
  MMC: 16 µg/mL
Geotrichum M-158; 0.1%
  Number of microbes: Growth: 0
  Number of microbes: Retardation: 10^4
Geotrichum M-158; 0.5%
  Number of microbes: Growth: 0
  Number of microbes: Retardation: 10^5
Geotrichum M-158; 2.0%
  Number of microbes: Growth: 0
  Number of microbes: Retardation: 10^5
[8]
  Cumulative mortality (test): 47
  Incubation period days (test): 0 days
C. jejuni 541-3
  MMC: 2
